In brackets after ≈: the same amount, converted by molar mass.
Tests used:
Assay type in all cases: functional
[1] = test system: Mycobacterium tuberculosis; test: Antitubercular activity against Mycobacterium tuberculosis H37Rv after 7 days by resazurin dye based assay; settings: 168 h
Acinetobacter baumannii = test: Antibacterial activity against Acinetobacter baumannii BAA1605 incubated for 16 to 18 hrs by broth microdilution assay
Klebsiella pneumoniae = test: Antibacterial activity against Klebsiella pneumoniae ATCC BAA-1705 incubated for 16 to 18 hrs by broth microdilution assay
Pseudomonas aeruginosa = test: Antibacterial activity against Pseudomonas aeruginosa ATCC 27853 incubated for 16 to 18 hrs by broth microdilution assay
Staphylococcus aureus = test: Antibacterial activity against Staphylococcus aureus ATCC 29213 incubated for 16 to 18 hrs by broth microdilution assay
Escherichia coli = test: Antibacterial activity against Escherichia coli ATCC 25922 incubated for 16 to 18 hrs by broth microdilution assay

| Compound | MIC [1] [µg/mL] | MIC (Acinetobacter baumannii) [µg/mL] | MIC (Klebsiella pneumoniae) [µg/mL] | MIC (Pseudomonas aeruginosa) [µg/mL] | MIC (Staphylococcus aureus) [µg/mL] | MIC (Escherichia coli) [µg/mL] |
| --- | --- | --- | --- | --- | --- | --- |
| N#Cc1ccc(/C=C/c2nc3ncccc3c(=O)n2-c2ccc3c(c2)OCCO3)cc1 | > 64 | > 64 | > 64 | > 64 | > 64 | > 64 |
| Cc1nc2ccc(-c3ccccc3)cc2c(=O)n1-c1ccccc1 | > 64 | > 64 | > 64 | > 64 | > 64 | > 64 |
| CN(C)c1ccc(O)c2c1C[C@H]1C[C@H]3[C@H](N(C)C)C(O)=C(C(N)=O)C(=O)[C@@]3(O)C(O)=C1C2=O [MINOCYCLINE] | – | – | – | – | 0.125 (≈ 0.273 µM) | – |
| COc1ccc(-c2ccc3nc(C)n(-c4ccccc4)c(=O)c3c2)cc1 | > 64 | > 64 | > 64 | > 64 | 32 (≈ 93.5 µM) | > 64 |
| N#Cc1ccc(/C=C/c2nc3cccc(F)c3c(=O)n2-c2cccc(C#N)c2)cc1 | > 64 | > 64 | > 64 | > 64 | 32 (≈ 81.6 µM) | > 64 |
| Cc1nc2cc(NCc3cn(-c4ccc(F)c(Cl)c4)nn3)ccc2c(=O)n1-c1ccccc1 | > 64 | > 64 | > 64 | > 64 | > 64 | > 64 |
| Cc1ccc(C)c(-n2c(/C=C/c3ccc(C#N)cc3)nc3ncccc3c2=O)c1 | > 64 | > 64 | > 64 | > 64 | > 64 | > 64 |
| C=CCOc1cccc(-n2c(/C=C/c3ccc(C#N)cc3)nc3cccc(F)c3c2=O)c1 | > 64 | > 64 | > 64 | > 64 | 64 (≈ 151 µM) | > 64 |
| C#CCNc1ccc2c(=O)n(-c3ccccc3)c(/C=C/c3ccc(C#N)cc3)nc2c1 | > 64 | > 64 | > 64 | > 64 | > 64 | > 64 |
| N#Cc1ccc(/C=C/c2nc3ccccc3c(=O)n2Cc2ccc(F)cc2)cc1 | > 64 | > 64 | > 64 | > 64 | > 64 | > 64 |
| COc1ccc(-c2ccc3c(=O)n(-c4cccc(Cl)c4)c(C)nc3c2)cc1 | > 64 | > 64 | > 64 | > 64 | > 64 | > 64 |
| Cc1ccc(-c2cn(-c3ccc4c(=O)n(-c5ccccc5)c(C)nc4c3)nn2)cc1 | > 64 | > 64 | > 64 | > 64 | > 64 | > 64 |
| COc1ccc(-c2ccc3nc(/C=C/c4ccccc4)n(-c4ccccc4)c(=O)c3c2)cc1 | 64 (≈ 149 µM) | > 64 | > 64 | > 64 | > 64 | > 64 |
| N#Cc1ccc(/C=C/c2nc3ncccc3c(=O)n2-c2cccc(O)c2)cc1 | > 64 | > 64 | > 64 | > 64 | > 64 | > 64 |
| Cc1cc(-n2cc(CNc3ccc4c(=O)n(-c5ccccc5)c(C)nc4c3)nn2)ccc1[N+](=O)[O-] | > 64 | > 64 | > 64 | > 64 | > 64 | > 64 |
| C#CCOc1ccc2nc(/C=C/c3ccc(C#N)cc3)n(Cc3ccccc3)c(=O)c2c1 | > 64 | > 64 | > 64 | > 64 | > 64 | > 64 |
| C#Cc1cccc(-n2c(/C=C/c3ccc(C#N)cc3)nc3ncccc3c2=O)c1 | > 64 | > 64 | > 64 | > 64 | > 64 | > 64 |
| N#Cc1ccc(/C=C/c2nc3ncccc3c(=O)n2-c2ccc(C#N)cc2)cc1 | > 64 | > 64 | > 64 | > 64 | 64 (≈ 170 µM) | > 64 |
| COC(=O)Cn1c(/C=C/c2ccc(C#N)cc2)nc2ccc(OCc3cn(-c4ccc(F)c(Cl)c4)nn3)cc2c1=O | > 64 | > 64 | > 64 | > 64 | > 64 | > 64 |
| CC(C)(O/N=C(\C(=O)N[C@@H]1C(=O)N2C(C(=O)[O-])=C(C[n+]3ccccc3)CS[C@H]12)c1csc(N)n1)C(=O)O [CEFTAZIDIME] | – | – | – | – | 16 (≈ 29.3 µM) | – |
| NNC(=O)c1ccncc1 [ISONIAZID] | 0.03 (≈ 0.219 µM) | – | – | – | – | – |
| CCCCCCCCCC(=O)N[C@@H](Cc1c[nH]c2ccccc12)C(=O)N[C@H](CC(N)=O)C(=O)N[C@@H](CC(=O)O)C(=O)N[C@@H]1C(=O)NCC(=O)N[C@@H](CCCN)C(=O)N[C@@H](CC(=O)O)C(=O)N[C@H](C)C(=O)N[C@@H](CC(=O)O)C(=O)NCC(=O)N[C@H](CO)C(=O)N[C@@H]([C@H](C)CC(=O)O)C(=O)N[C@@H](CC(=O)c2ccccc2N)C(=O)O[C@@H]1C | – | – | – | – | 0.5 (≈ 0.309 µM) | – |
